Experimental data reported in patent EP4772514A1, “MACROCYCLIC COMPOUNDS, PREPARATION METHOD THEREFOR, AND USE THEREOF” (Genfleet Therapeutics (Shanghai) Inc., priority 2023, dated 2025).
Where two headings read alike, the source gives them in different places.

Assays:
Type in all cases: cell-based
p-ERK [1] = test: Cell p-ERK assay (HTRF, Advance ERK phospho-T202/Y204 kit) in AsPC-1 cells; settings: AsPC-1, human pancreatic cancer cell strain, KRAS G12D mutation, 3 h compound incubation
Summary of the method: (§1)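 Phospho-ERK (T202/Y204) measured by HTRF in lysates of AsPC-1 (KRAS G12D) or NCI-H441 (KRAS G12V) cells after 3 h compound exposure at 37 °C in RPMI-1640 + 10% FBS, 0.1% DMSO. Inhibition normalised to DMSO and blank wells; IC50 by four-parameter fit.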

p-ERK [2] = test: Cell p-ERK assay (HTRF, Advance ERK phospho-T202/Y204 kit) in NCI-H441 cells; settings: NCI-H441, human non-small cell lung cancer cell strain, KRAS G12V mutation, 3 h compound incubation
Summary of the method: as §1

AsPC-1 cells = test: 3D cell proliferation assay (CellTiter Glo-3D) in AsPC-1 cells; settings: AsPC-1, human pancreatic cancer cell strain, KRAS G12D mutation, 3D culture, 2% FBS, 5 days, read-out: AsPC-1 AP IC50
Summary of the method: (§2)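 After a 5-day exposure at 37 °C to 3.16-fold serial dilutions (final DMSO 0.1%) in 2% FBS RPMI-1640, ATP luminescence (CellTiter-Glo 3D) was read. Cells were AsPC-1 (KRAS G12D) or NCI-H441 (KRAS G12V), 800 per well; inhibition used DMSO and medium-only controls, with four-parameter curve fitting giving IC50.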

NCI-H441 cells = test: 3D cell proliferation assay (CellTiter Glo-3D) in NCI-H441 cells; settings: NCI-H441, human lung cancer cell strain, KRAS G12V mutation, 3D culture, 2% FBS, 5 days, read-out: H441 AP IC50
Summary of the method: as §2

Compound	IC50 (p-ERK [1]) [nM]	IC50 (p-ERK [2]) [nM]	IC50 (AsPC-1 cells) [nM]	IC50 (NCI-H441 cells) [nM]	IC50 (p-ERK [1]; ASPC1) [nM]	IC50 (p-ERK [2]; Homo sapiens, NCI-H441, 3 h) [nM]	IC50 (AsPC-1 cells; ASPC1, 120 h) [nM]	IC50 (NCI-H441 cells; Homo sapiens, NCI-H441, 120 h) [nM]
CCn1c(F)c2c(c1-c1cc(N3CCN(C)CC3)cnc1C(C)OC)CC(C)(C)COC(=O)C1CCCN(N1)C(=O)C(NC(=O)C1C(C)C1C)Cc1nc(cs1)C=C2 [Compound Z75, (1r,2S,3R)-N-((4^2Z,8^3R,2E,6R)-1^1-ethyl-1^2-fluoro-1^5-(2-((S)-1-methoxyethyl)-5-(4-methylpiperazin-1-yl)pyridin-3-yl)-12,12-dimethyl-7,9-dioxo-8^1,8^2,8^3,8^4,8^5,8^6-hexahydro-1^1H-10-oxa-4(4,2)-thiazola-8(1,3)-pyridazina-1(3,4)-pyrrolacyclotridecaphan-2-en-6-yl)-2,3-dimethylcyclopropane-1-carboxamide]	1.46	1.3	2.17	1.85				
CCn1nc2c(c1-c1cc(C#CCN3CCC(C#N)(CN)CC3)cnc1[C@H](C)OC)CC(C)(C)COC(=O)[C@@H]1CCCN(N1)C(=O)[C@@H](NC(=O)[C@H]1[C@H](C)[C@@H]1C)Cc1nc(cs1)/C=C/2 [Compound Z119]					2.29	1.81	2.39	1.45
(1r,2R,3S)-N-((4^2Z,8^3R,2E,6R)-1^1-ethyl-(Sa)-1^5-(2-((S)-1-methoxyethyl)-5-(4-methylpiperazin-1-yl)pyridin-3-yl)-12,12-dimethyl-7,9-dioxo-8^1,8^2,8^3,8^4,8^5,8^6-hexahydro-1^1H-10-oxa-4(4,2)-thiazola-8(1,3)-pyridazina-1(3,4)-pyrrolacyclotridecaphan-2-en-6-yl)-2,3-dimethylcyclopropane-1-carboxamide [Compound Z8-1]	103	98.6	64.3	62.7				
